{
  "source": "patent US20150374673A1",
  "about": "“Combination Therapy for the Treatment of Nosocomial Pneumonia” (priority 2013, published 2015)",
  "key": {"P. aeruginosa": {"system": "P. aeruginosa", "test": "Neutropenic thigh infection model (CD-1 mice), exposure response of ceftazidime q2h and avibactam", "format": "in vivo, Pseudomonas aeruginosa", "conditions": "for % fT>CT required to support a bacteriostatic effect: CT 1 mg/L; for Emax model maximum / Emax model minimum: ceftazidime q2h and avibactam q2h, SE between brackets; for % fT > CT1 of avibactam associated with 24-h stasis: CT1 = threshold concentration of 1 mg/L", "procedure": "CD-1 neutropenic mice were infected with appr. 10^6 cfu β-lactamase-producing P. aeruginosa strains in the thigh.\nOutbred female CD-1 mice (Charles River, Netherlands), 4 to 5 weeks old, weighing 20 to 25 g were used in the experiments. Granulocytopenia was induced by two doses of cyclophosphamide s.c.: one at four days (150 mg/kg) and the other at one day (100 mg/kg) before the infection experiment.\nThe neutropenic mice were infected with 2 P. aeruginosa strains per animal, one in the left and one in the right thigh. 0.05 mL of bacterial suspension consisting of approximately 10^5-10^6 bacteria was inoculated intramuscularly. […] All dosing regimens were performed in at least two animals. At t=0 h, 2 mice were humanely sacrificed to determine the initial inoculum just before treatment. All other animals were sacrificed at t=24 h unless the welfare of the animals indicated earlier termination was necessary, following animal welfare regulations. Thighs were taken and moved to a pre-cooled 10-mL plastic tube (Transport Tube, Omnilabo, NL) ? containing 2 mL phosphate buffered saline (PBS; NaCl 8.00 g/L, Na2HPO42H2 1.44 g/L, KH2PO4 0.26 g/L, pH 7.2-7.4). Subsequently thighs were ground using an Ultra-Turrax (IKA Labortechnik, Germany). A tenfold dilution series was prepared and 3×10 μL plated (Chromagar, Biomerieux, NL) per dilution. The following day, colonies were counted and the number of cfu per thigh calculated. The drug effect was then determined as the difference between the log10[cfu/thigh] values at t=24 h and t=0 h (mean value of 2 mice) expressed as “dcfu”.\nThe amount of avibactam administered varied in frequency and dose. […] The drug effect was determined as the difference between the log10 [cfu/thigh] values at t=24 h and t=0 h (mean value of 2 mice) expressed as dcfu. Free drug concentrations were used in all calculations. […] Oral presentation at the ? 52nd Interscience Conference on Antimicrobial Agents and Chemotherapy, San Francisco, Calif. Abstract #A-1760)."}, "Penetration to human ELF": {"test": "Penetration to human ELF", "format": "in vivo", "conditions": "epithelial lining fluid (ELF)"}, "K. pneumoniae": {"system": "K. pneumoniae", "test": "MIC, CLSI broth microdilution in CAMHB with 0-10% pulmonary surfactant (avibactam fixed at 4 μg/mL in combination)", "format": "cell-based", "conditions": "Klebsiella pneumoniae", "procedure": "The bacterial strains used in this testing were part of the microbiological culture collection housed at AstraZeneca R&D Boston (AstraZeneca Research Collection, designated ARC). The panel of bacterial isolates used for this testing was comprised of five CLSI QC reference strains and the remainder were either recent clinical isolates expressing β-lactamases or isolates from the primary bacterial screening panels.\nMIC values were determined using the CLSI broth microdilution methodology with slight variation. Stock compound mother plates were prepared and used to spot 2 μL aliquots of serial 2-fold drug dilutions to columns 1-11 of 96-well daughter plates using a Perkin-Elmer MiniTrak™ MultiPosition dispenser. […] An inoculum volume of 100 μL (5×10E^5 CFU/mL) in CAMHB containing 0, 1, 2.5, 5, or 10% pulmonary surfactant was added using a multichannel Finnpipette® to each well of the 96-well plate.\nThe minimum inhibitory concentration (MIC) values against each organism/drug combination were determined using broth microdilution methodology according to CLSI guidelines. The recommended reference bacterial strains for each test group and reference compounds were incorporated into each test. For Gram-negatives, the reference bacterial strains were Escherichia coli ATCC 25922, E. coli ATCC 35218, Klebsiella pneumoniae ATCC 700603, and Pseudomonas aeruginosa ATCC 27853. Staphylococcus aureus ATCC 29213 was the reference bacterial strain for the Gram-positives.\nMIC values for individual isolates were read visually. The MICs for each compound or combination in pulmonary surfactant was compared to the compound or combination tested in CAMHB alone."}, "[1]": {"conditions": "6 P. aeruginosa strains, with fixed ceftazidime q2h, thigh"}, "[2]": {"conditions": "strain 1, thigh infection, Dose CAZ 32 mg/kg"}, "[3]": {"conditions": "strain 5, thigh infection, Dose CAZ 64 mg/kg"}, "[4]": {"conditions": "strain 7, thigh infection, Dose CAZ 64 mg/kg"}, "[5]": {"conditions": "strain 11, thigh infection, Dose CAZ 64 mg/kg"}, "[6]": {"conditions": "strain 18, thigh infection, Dose CAZ 64 mg/kg"}, "[7]": {"conditions": "strain 19, thigh infection, Dose CAZ 32 mg/kg"}},
  "data": [
    {"smiles": "NC(=O)[C@@H]1CC[C@@H]2CN1C(=O)N2OS(=O)(=O)[O-].[Na+]", "note": "[avibactam, [(2S,5R)-2-carbamoyl-7-oxo-1,6-diazabicyclo[3.2.1]octan-6-yl]hydrogen sulfate]", "values": [
      {"measurement": "mean % fT>CT 1 mg/L for static effect", "setting": "P. aeruginosa; [1]", "result": 36.3, "unit": "%"},
      {"measurement": "range of % fT>CT 1 mg/L for static effect", "setting": "P. aeruginosa; [1]", "result": "14.1-62.5"},
      {"measurement": "% fT>CT required to support a bacteriostatic effect", "setting": "P. aeruginosa; strain 7, thigh", "result": 30.2},
      {"measurement": "% fT>CT required to support a bacteriostatic effect", "setting": "P. aeruginosa; strain 18, thigh", "result": 74.1},
      {"measurement": "% fT>CT required for static effect", "setting": "P. aeruginosa; CT of 1 mg/L, dose fractionation studies, 2 strains, with ceftazidime q2h, thigh", "result": "30.2-74.1"},
      {"measurement": "% fT > CT1 of avibactam associated with 24-h stasis, mean", "setting": "P. aeruginosa; mean of 6 strains (sd 17.8), thigh infection, CT1 = 1 mg/L", "result": 36.3, "unit": "%"},
      {"measurement": "Emax model maximum", "setting": "P. aeruginosa; strain 1", "result": 1.26},
      {"measurement": "Emax model minimum", "setting": "P. aeruginosa; strain 1", "result": "≈′−727.5"},
      {"measurement": "TDD AVI associated with 24-h stasis", "setting": "P. aeruginosa; [2]", "result": 123.70, "unit": "mg/kg"},
      {"measurement": "log TDD AVI associated with 24-h stasis", "setting": "P. aeruginosa; [2]", "result": 2.09},
      {"measurement": "% fT > CT1 of avibactam associated with 24-h stasis", "setting": "P. aeruginosa; [2]", "result": 37.2, "unit": "%"},
      {"measurement": "Emax model maximum", "setting": "P. aeruginosa; strain 5", "result": "≈0.70"},
      {"measurement": "Emax model minimum", "setting": "P. aeruginosa; strain 5", "result": "−3.25 (0.95)"},
      {"measurement": "TDD AVI associated with 24-h stasis", "setting": "P. aeruginosa; [3]", "result": 33.59, "unit": "mg/kg"},
      {"measurement": "log TDD AVI associated with 24-h stasis", "setting": "P. aeruginosa; [3]", "result": 1.53},
      {"measurement": "% fT > CT1 of avibactam associated with 24-h stasis", "setting": "P. aeruginosa; [3]", "result": 14.1, "unit": "%"},
      {"measurement": "Emax model maximum", "setting": "P. aeruginosa; strain 7", "result": "1.81 (0.29)"},
      {"measurement": "Emax model minimum", "setting": "P. aeruginosa; strain 7", "result": "−2.83 (1.41)"},
      {"measurement": "TDD AVI associated with 24-h stasis", "setting": "P. aeruginosa; [4]", "result": 267.47, "unit": "mg/kg"},
      {"measurement": "log TDD AVI associated with 24-h stasis", "setting": "P. aeruginosa; [4]", "result": 2.43},
      {"measurement": "% fT > CT1 of avibactam associated with 24-h stasis", "setting": "P. aeruginosa; [4]", "result": 50.4, "unit": "%"},
      {"measurement": "Emax model maximum", "setting": "P. aeruginosa; strain 11", "result": "1.40 (0.50)"},
      {"measurement": "Emax model minimum", "setting": "P. aeruginosa; strain 11", "result": "−2.95 (0.41)"},
      {"measurement": "TDD AVI associated with 24-h stasis", "setting": "P. aeruginosa; [5]", "result": 77.88, "unit": "mg/kg"},
      {"measurement": "log TDD AVI associated with 24-h stasis", "setting": "P. aeruginosa; [5]", "result": 1.89},
      {"measurement": "% fT > CT1 of avibactam associated with 24-h stasis", "setting": "P. aeruginosa; [5]", "result": 29.1, "unit": "%"},
      {"measurement": "Emax model maximum", "setting": "P. aeruginosa; strain 18", "result": "0.83 (0.36)"},
      {"measurement": "Emax model minimum", "setting": "P. aeruginosa; strain 18", "result": "−2.36 (0.23)"},
      {"measurement": "TDD AVI associated with 24-h stasis", "setting": "P. aeruginosa; [6]", "result": 58.91, "unit": "mg/kg"},
      {"measurement": "log TDD AVI associated with 24-h stasis", "setting": "P. aeruginosa; [6]", "result": 1.77},
      {"measurement": "% fT > CT1 of avibactam associated with 24-h stasis", "setting": "P. aeruginosa; [6]", "result": 24.2, "unit": "%"},
      {"measurement": "Emax model maximum", "setting": "P. aeruginosa; strain 19", "result": "2.46 (0.22)"},
      {"measurement": "Emax model minimum", "setting": "P. aeruginosa; strain 19", "result": "−1.42 (0.46)"},
      {"measurement": "TDD AVI associated with 24-h stasis", "setting": "P. aeruginosa; [7]", "result": 541.34, "unit": "mg/kg"},
      {"measurement": "log TDD AVI associated with 24-h stasis", "setting": "P. aeruginosa; [7]", "result": 2.73},
      {"measurement": "% fT > CT1 of avibactam associated with 24-h stasis", "setting": "P. aeruginosa; [7]", "result": 62.5, "unit": "%"},
      {"measurement": "effect on ceftazidime static % fT>MIC", "setting": "P. aeruginosa; thigh infection, all strains", "result": "reduced"},
      {"measurement": "Kp", "setting": "Penetration to human ELF", "result": "~0.3"},
      {"measurement": "MIC", "setting": "K. pneumoniae; ATCC700603, K. pneumoniae ARC561 (ATCC 700603; SHV-18, OXA-2, OKP-6), surfactant 0%", "result": "> 64", "unit": "µg/mL"},
      {"measurement": "MIC", "setting": "K. pneumoniae; ATCC700603, K. pneumoniae ARC561 (ATCC 700603; SHV-18, OXA-2, OKP-6), surfactant 1%", "result": "> 64", "unit": "µg/mL"},
      {"measurement": "MIC", "setting": "K. pneumoniae; ATCC700603, K. pneumoniae ARC561 (ATCC 700603; SHV-18, OXA-2, OKP-6), surfactant 2.5%", "result": "> 64", "unit": "µg/mL"},
      {"measurement": "MIC", "setting": "K. pneumoniae; ATCC700603, K. pneumoniae ARC561 (ATCC 700603; SHV-18, OXA-2, OKP-6), surfactant 5%", "result": 64, "unit": "µg/mL"},
      {"measurement": "MIC", "setting": "K. pneumoniae; ATCC700603, K. pneumoniae ARC561 (ATCC 700603; SHV-18, OXA-2, OKP-6), surfactant 10%", "result": 64, "unit": "µg/mL"},
      {"measurement": "MIC", "setting": "K. pneumoniae; K. pneumoniae ARC1865 (Primary Screening Panel), surfactant 1%", "result": "> 64", "unit": "µg/mL"},
      {"measurement": "MIC", "setting": "K. pneumoniae; K. pneumoniae ARC1865 (Primary Screening Panel), surfactant 2.5%", "result": 64, "unit": "µg/mL"},
      {"measurement": "MIC", "setting": "K. pneumoniae; K. pneumoniae ARC1865 (Primary Screening Panel), surfactant 5%", "result": "> 64", "unit": "µg/mL"}
    ]}
  ]
}
